Key:
colon lymphocytes = experiment: ELISA of IL-22 in supernatants of isolated colon lymphocytes; assay type: cell-based, mice
Experimental: Enzyme-Linked Immunosorbent Assay (ELISA). The cytokine IL-22, IL-1β, and TNFα levels in cell culture supernatants or mouse colon mucus were quantified using ELISA kits (eBioscience) according to the manufacturer's instructions. Briefly, a microtiter plate was coated with anti-mouse IL-22, IL-1β and TNFα antibody at 1:200 overnight at 4° C. Excess binding sites were blocked with 200 μl of 1×[…] Diluent (eBioscience, San Diego, California, United States of America) for 1 hour at 22° C. After washing three times with PBS containing 0.05% Tween 20, the plate was incubated with detection antibody in blocking buffer for 1 hour at 22° C. After three washes, avidin conjugated with horseradish peroxidase and substrate were each added sequentially for 1 hour and 30 min at 22° C. […] Isolation of Lymphoid Cells in the Colon. Intestinal lymphoid cells were isolated from the intestine by incubation in PBS supplemented with 1 mM EDTA, 15 mM HEPES and 10% FCS for 30 minutes at 37° C. Supernatants were discarded, and tissues were then incubated in RPMI supplemented with 15 mM HEPES and 300 units/mL collagenase type VIII (Sigma) for 30 minutes with gentle shaking. Lysates were gently pressed through nylon cell strainers (70 μm in diameter; […] Lymphocytes were recovered from the interface and washed twice.

IL-22, IL-1β, TNFα = experiment: ELISA of IL-22, IL-1β and TNFα in colon mucus; assay type: in vivo, mice
Experimental: Enzyme-Linked Immunosorbent Assay (ELISA). The cytokine IL-22, IL-1β, and TNFα levels in cell culture supernatants or mouse colon mucus were quantified using ELISA kits (eBioscience) according to the manufacturer's instructions. Briefly, a microtiter plate was coated with anti-mouse IL-22, IL-1β and TNFα antibody at 1:200 overnight at 4° C. Excess binding sites were blocked with 200 μl of 1×ELISA/ELISPoT Diluent (eBioscience, San Diego, California, United States of America) for 1 hour at 22° C. After washing three times with PBS containing 0.05% Tween 20, the plate was incubated with detection antibody in blocking buffer for 1 hour at 22° C. After three washes, avidin conjugated with horseradish peroxidase and substrate were each added sequentially for 1 hour and 30 min at 22° C. An analysis of absorbance at 405 nm using a microtiter plate reader (BioTek Synergy HT, BioTek Instruments, Inc., Winooski, Vermont, United States of America) followed.

LGG = experiment: HPLC analysis of tryptophan metabolites in LGG MRS broth; assay type: cell-based, Lactobacillus rhamnosus
Experimental: HPLC Analysis of Tryptophan Metabolites. The fecal samples and LGG MRS broth were diluted with an equal volume of methanol. After centrifugation at 10,000×g for 30 minutes, 50 μl of supernatant was injected for high-performance liquid chromatography (HPLC) analysis. The HPLC analysis was performed on an Agilent 1260 Infinity system equipped with an Agilent ZORBAX SB-C18 column (4.6×150 mm, 3.5 μm), with following parameters: mobile phase A: 5 mM NH4Ac in water modified with 0.1% formic acid (v/v); mobile phase B: 5 mM NH4Ac in 90% acetonitrile modified with 0.1% formic acid (v/v); gradient: 5% B in first 5 min, 5-20% B for 10 min, hold 20% B for 5 min, 20%-50% B for 5 min, hold 50% B for 5 min, 50%-100% B for 5 min, hold 100% B for 10 min, 100-5% B for 5 min; flow rate: 1.0 ml/min; temperature: 30° C. UV detection at 300 nm was used to monitor indole-3-carboxaldehyde (I3A) and indole-3-acetaldehyde (IAAld); FLD (ex=280 nm; em=350 nm) was used for detection of tryptophan and indole-3-acetamide (I3AM). The standard for I3A (Catalog No. 129445-5g), I3AM (Catalog No. 286281-1G), IAAld (Catalog No. I1000-25MG), and tryptophan (Catalog No. T0254-25g) were purchased from Sigma.

MC-38 cells = experiment: Migration assay, intracellular LGG; assay type: cell-based, C57BL/6 murine
Experimental: Cells. C57BL/6 murine colon adenocarcinoma MC-38 cells (gender unknown; Kerafast, Inc., Boston, Massachusetts, United States of America) or human epithelial colorectal adenocarcinoma Caco-2 cells (American Type Culture Collection, ATCC®, Manassas, Virginia, United States of America) were grown in tissue culture plates with Dulbecco's modified Eagle's medium (DMEM) supplemented with 10% heat-inactivated fetal bovine serum (FBS), 100 U/mL penicillin, and 100 μg/mL streptomycin at 37° C. in a 5% CO2 atmosphere.
Migration Assays. MC-38 or Caco-2 cells (ATCC) were seeded at 1×10^5 cells per well in a 12-well tissue culture plate with Dulbecco's modified Eagle's medium (DMEM) without antibiotics. The cells were inoculated with 1×10^7 bacteria per well for 90 minutes at 37° C. in a 5% CO2 atmosphere to allow bacterial adhesion and entry. The number of intracellular bacteria was quantified as described in Zhang & Wang, 1998.

monooxygenase ycnE = experiment: ycnE expression in LGG (qPCR, mRNA sequencing, LC-MS/MS); assay type: cell-based, Lactobacillus rhamnosus
Experimental: Quantitative Real-Time PCR for RNA Expression. The quantity of mature miRNAs was determined with quantitative real-time PCR (qPCR) using a miScript II RT kit (QIAGEN Inc., Germantown, Maryland, United States of America) and miScript SYBR Green PCR Kit (QIAGEN) with QIAGEN 3′ universal primers. For analysis of gene mRNA expression, 1 μg of total RNA was reverse transcribed using SuperScript III reverse transcriptase (Invitrogen, Waltham, Massachusetts, United States of America), and quantitation was performed using SsoAdvanced™ Universal SYBR Green Supermix (Bio-Rad Laboratories, Inc., Hercules, California, United States of America) and the listed primers (Table 1) with SsoAdvanced™ Universal SYBR Green Supermix (Bio-Rad). qPCR was performed using a Bio-Rad CFX96 qPCR System with each reaction run in triplicate. Analysis and fold-changes were determined using the comparative threshold cycle (Ct) method. Changes in miRNA or mRNA expression were calculated as fold-change. […]
LGG mRNA Sequencing. […] Following quantitation with Qubit dsDNA HS Reagent (Catalog No., Q32854; Thermo Scientific,), 10 ng of dscDNA/sample was fragmented with an E220 Focused-ultrasonicator (Covaris, Matthews, North Carolina, United States of America). […] Libraries were then combined into equimolar pools, which were then measured for size and concentration. […] The first and second reads were each 83 bases.

O=Cc1c[nH]c2ccccc12 [I3A, indole-3-carboxaldehyde]
induction of IL-22 in colon lymphocytes from AHR KO mice (colon lymphocytes; AHR KO mice): no evidence of an impact
IL-22 in supernatants of colon lymphocytes (colon lymphocytes; colon lymphocytes from naïve B6 mice incubated for 3 hours): induced expression of IL-22

NC(=O)Cc1c[nH]c2ccccc12 [I3AM, indole-3-acetamide]
inhibitory effect on IL-22 production in AHR KO mice (IL-22, IL-1β, TNFα; AHR KO mice treated with LGG supernatant exposed to I3AM): did not occur
production of IAAld and I3A by LGG (LGG; MRS media, different concentrations of I3AM): inhibited the production of IAAld and I3A in a dose-dependent manner
GELN-RNA-mediated induction of the I3A precursor IAAld in LGG cultures (LGG; addition of I3AM to LGG cultures): significantly inhibited

O=CCc1c[nH]c2ccccc12 [IAAld, indole-3-acetaldehyde]
I3AM-mediated inhibitory effect on IL-22 production (IL-22, IL-1β, TNFα; colon mucus of WT mice gavaged with MRS medium from treated LGG): cancelled the I3AM-mediated inhibitory effort on IL-22 production
inhibitory effect of I3AM on the production of I3A (LGG; additional IAAld): cancelled

ath-miR827: GELN-derived miRNA, SEQ ID NO: 81 (UUAGAUGACCAUCAACAAACU; expressed or natural sequence)
LGG entry into MC38 cells (MC-38 cells): could prevent the entry of LGG into gut epithelial cells

ath-miR842: GELN-derived miRNA, SEQ ID NO: 82 (UCAUGGUCAGAUCCGUCAUCC; expressed or natural sequence)
LGG entry into MC38 cells (MC-38 cells): could prevent the entry of LGG into gut epithelial cells

mdo-miR7267-3p: GELN-derived miRNA, SEQ ID NO: 129 (CAUCCAGCCAUCCACCCCAGGCCAUC; expressed or natural sequence)
ycnE expression in LGG (monooxygenase ycnE): indeed inhibited
I3A in LGG cultures (LGG): induction of I3A
I3AM in LGG cultures (LGG): inhibition of I3AM
